From paper PMC6021035, “Insights into biological activity of ureidoamides with primaquine and amino acid moieties” (Journal of Enzyme Inhibition and Medicinal Chemistry, 2018)
Values after ≈ are worked out from the molar mass of the structure shown. Marks after values point to notes of the source that are not given here.

Assays:
[1] = tested on: Aspergillus niger ATCC 16404; assay: MIC determination (broth micro-dilution); assay type: cell-based; conditions: ATCC16404
Description: (§1) Before analysis, compounds 5a–f were dissolved in 96% ethanol in a concentration of 2 mg/ml as stock solutions. Inoculums were prepared with fresh cultures of microbial strains, cultured on tryptic-soy agar or Sabouraud 2% (m/v) dextrose agar for 18 h (48–72 h for fungi) at 30 °C with physiological saline containing approximately […]. Inoculum density (0.5 McFarland units) was adjusted with a bio Mériex (France) densitometer. Minimum inhibitory concentration (MIC) was determined by the twofold micro-dilution method in Mu¨ller–Hinton broth for bacterial strains and RPMI 1640 + 2% m/v dextrose for fungi according to the EUCAST recommendations in a sterile 96-well flat-bottom plastic tissue culture plate. MIC was determined using a linear regression curve after incubation of compounds and reading the optical density at 570 nm using an iEMS microplate reader. […] All tests were performed in triplicate and expressed as the mean.

[2] = tested on: Bacillus cereus ATCC 11778; assay: MIC determination (broth micro-dilution); assay type: cell-based; conditions: ATCC11778
Description: as §1

[3] = tested on: Bacillus subtilis ATCC 6633; assay: MIC determination (broth micro-dilution); assay type: cell-based; conditions: ATCC6633
Description: as §1

[4] = tested on: Burkholderia caepacia ATCC 25416; assay: MIC determination (broth micro-dilution); assay type: cell-based; conditions: ATCC25416
Description: as §1

[5] = tested on: Candida albicans ATCC 10231; assay: MIC determination (broth micro-dilution); assay type: cell-based; conditions: ATCC10231
Description: as §1

[6] = tested on: Candida albicans ATCC 90028; assay: MIC determination (broth micro-dilution); assay type: cell-based; conditions: ATCC90028
Description: as §1

Candida kefyr ATCC 2512 = assay: MIC determination (broth micro-dilution); assay type: cell-based; conditions: Kluyveromyces marxianus, ATCC2512
Description: as §1

[7] = tested on: Candida krusei ATCC 14243; assay: MIC determination (broth micro-dilution); assay type: cell-based; conditions: Pichia kudriavzevii, ATCC14243
Description: as §1

[8] = tested on: Candida parapsylosis ATCC 22019; assay: MIC determination (broth micro-dilution); assay type: cell-based; conditions: ATCC22019
Description: as §1

[9] = tested on: Candida tropicalis ATCC 750; assay: MIC determination (broth micro-dilution); assay type: cell-based; conditions: ATCC750
Description: as §1

[10] = tested on: Enterococcus faecalis ATCC 29212; assay: MIC determination (broth micro-dilution); assay type: cell-based; conditions: ATCC29212
Description: as §1

[11] = tested on: Enterococcus hyrae ATCC 8043; assay: MIC determination (broth micro-dilution); assay type: cell-based; conditions: ATCC8043
Description: as §1

[12] = tested on: Escherichia coli ATCC 10536; assay: MIC determination (broth micro-dilution); assay type: cell-based; conditions: ATCC10536
Description: as §1

[13] = tested on: Escherichia coli ATCC 8739; assay: MIC determination (broth micro-dilution); assay type: cell-based; conditions: ATCC8739
Description: as §1

[14] = tested on: Issatchenkia orientalis Kudrjanzev ATCC 6258; assay: MIC determination (broth micro-dilution); assay type: cell-based; conditions: Pichia kudriavzevii, ATCC6258
Description: as §1

[15] = tested on: Kocuria rhizophila ATCC 9341; assay: MIC determination (broth micro-dilution); assay type: cell-based; conditions: ATCC9341
Description: as §1

[16] = tested on: Pseudomonas aeruginosa ATCC 27853; assay: MIC determination (broth micro-dilution); assay type: cell-based; conditions: ATCC27853
Description: as §1

[17] = tested on: Pseudomonas aeruginosa ATCC 9027; assay: MIC determination (broth micro-dilution); assay type: cell-based; conditions: ATCC9027
Description: as §1

[18] = tested on: Staphylococcus aureus ATCC 25213; assay: MIC determination (broth micro-dilution); assay type: cell-based; conditions: ATCC25213
Description: as §1

[19] = tested on: Staphylococcus aureus ATCC 25923; assay: MIC determination (broth micro-dilution); assay type: cell-based; conditions: ATCC25923
Description: as §1

[20] = tested on: Staphylococcus aureus ATCC 6538; assay: MIC determination (broth micro-dilution); assay type: cell-based; conditions: ATCC6538
Description: as §1

[21] = Interaction with 1,1-diphenyl-2-picrylhydrazyl (DPPH); conditions: 100 μΜ
Description: To a solution of DPPH in absolute ethanol, an appropriate volume of the tested compound solution (0.1 mM final concentration) dissolved in DMSO was added. Absorbance was recorded at 517 nm after 20 and 60 min at room temperature (Lambda 20 double beam spectrophotometer, Perkin-Elmer, UK). Experiments were repeated at least in triplicate and the standard deviation of absorbance was less than 10% of the mean[10]. NDGA was used under the same experimental conditions as a reference compound.

[22] = molecular target: T1, soybean lipoxygenase (LOX) (Glycine max, UniProt P08170); assay: In vitro soybean lipoxygenase (LOX) inhibition; assay type: biochemical; conditions: for IC50: sodium linoleate 0.1 mM, read-out: LOX inhibition (IC50 μM) ± SD
T1 construct: purchased Sigma-Aldrich
T1 sequence (P08170 1-839): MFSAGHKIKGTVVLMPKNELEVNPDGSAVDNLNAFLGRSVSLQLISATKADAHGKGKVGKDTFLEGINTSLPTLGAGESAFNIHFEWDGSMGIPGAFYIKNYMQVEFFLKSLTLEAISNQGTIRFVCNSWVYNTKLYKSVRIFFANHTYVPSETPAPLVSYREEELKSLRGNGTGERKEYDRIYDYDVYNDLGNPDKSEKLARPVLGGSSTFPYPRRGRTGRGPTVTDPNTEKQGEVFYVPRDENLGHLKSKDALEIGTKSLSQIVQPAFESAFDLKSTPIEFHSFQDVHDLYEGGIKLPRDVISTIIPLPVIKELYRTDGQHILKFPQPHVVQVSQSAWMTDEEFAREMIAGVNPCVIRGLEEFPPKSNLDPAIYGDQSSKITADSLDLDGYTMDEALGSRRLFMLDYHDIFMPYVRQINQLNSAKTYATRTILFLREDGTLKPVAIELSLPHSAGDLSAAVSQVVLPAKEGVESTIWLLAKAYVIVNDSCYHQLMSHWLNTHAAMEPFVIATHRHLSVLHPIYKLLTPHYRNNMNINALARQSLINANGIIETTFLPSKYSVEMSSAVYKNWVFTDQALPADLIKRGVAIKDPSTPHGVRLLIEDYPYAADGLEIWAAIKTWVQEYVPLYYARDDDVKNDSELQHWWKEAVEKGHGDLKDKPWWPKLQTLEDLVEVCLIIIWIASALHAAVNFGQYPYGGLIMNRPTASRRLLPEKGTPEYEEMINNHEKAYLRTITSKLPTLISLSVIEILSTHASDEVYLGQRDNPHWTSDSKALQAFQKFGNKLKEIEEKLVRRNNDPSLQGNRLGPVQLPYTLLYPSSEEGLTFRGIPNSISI
Description: In vitro LOX inhibition assay was accomplished as described previously. Test compounds (stock solutions 10 mM in DMSO) were incubated at room temperature with sodium linoleate (0.1 mM) and 0.2 ml of LOX solution (0.1 mg in 10 ml saline). Conversion of sodium linoleate to 13-hydroperoxylinoleic acid was measured at 234 nm and compared to the reference inhibitor. Several concentrations were used for IC50 determination.

| MIC [1] | MIC [2] | MIC [3] | MIC [4] | MIC [5] | MIC [6] | MIC (Candida kefyr ATCC 2512) | MIC [7] | MIC [8] | MIC [9] | MIC [10] | MIC [11] | MIC [12] | MIC [13] | MIC [14] | MIC [15] | MIC [16] | MIC [17] | MIC [18] | MIC [19] | SMILES | also measured |
| --- | --- | --- | --- | --- | --- | --- | --- | --- | --- | --- | --- | --- | --- | --- | --- | --- | --- | --- | --- | --- | --- |
| > 100 µg/mL | 50 µg/mL (≈ 78.6 µM) | 65 µg/mL (≈ 102 µM) | > 100 µg/mL | > 100 µg/mL | > 100 µg/mL | > 100 µg/mL | > 100 µg/mL | > 100 µg/mL | > 100 µg/mL | > 100 µg/mL | > 100 µg/mL | 60 µg/mL (≈ 94.3 µM) | 65 µg/mL (≈ 102 µM) | > 100 µg/mL | > 100 µg/mL | 50 µg/mL (≈ 78.6 µM) | 65 µg/mL (≈ 102 µM) | 12.5 µg/mL (≈ 19.6 µM) | 25 µg/mL (≈ 39.3 µM) | COc1cc(NC(C)CCCNC(=O)NC(C(=O)NC(c2ccccc2)c2ccccc2)c2ccc(Cl)cc2)c2ncccc2c1 (stereo not drawn) [Compound 5d, 2–(4-chlorophenyl)-N-(diphenylmethyl)-2-[({4-[(6-methoxyquinolin-8-yl)amino]pentyl}carbamoyl)amino]acetamide] | MIC [20]: 25 µg/mL (≈ 39.3 µM); DPPH-reducing ability 20 min [21]: 1^b %; DPPH-reducing ability 60 min [21]: 2^b %; IC50 [22]: 41.5 ± 3.1 µM |
| > 100 µg/mL | 70 µg/mL (≈ 120 µM) | 50 µg/mL (≈ 85.9 µM) | 65 µg/mL (≈ 112 µM) | > 100 µg/mL | > 100 µg/mL | > 100 µg/mL | > 100 µg/mL | > 100 µg/mL | > 100 µg/mL | > 100 µg/mL | > 100 µg/mL | > 100 µg/mL | > 100 µg/mL | > 100 µg/mL | 25 µg/mL (≈ 43 µM) | 25 µg/mL (≈ 43 µM) | 60 µg/mL (≈ 103 µM) | 6.5 µg/mL (≈ 11.2 µM) | 15 µg/mL (≈ 25.8 µM) | COc1cc(NC(C)CCCNC(=O)NC(CC(C)C)C(=O)NC(c2ccccc2)c2ccccc2)c2ncccc2c1 (stereo not drawn) [Compound 5a, N-(diphenylmethyl)-2-[({4-[(6-methoxyquinolin-8-yl)amino]pentyl}carbamoyl)amino]-4-methylpentanamide] | MIC [20]: 12.5 µg/mL (≈ 21.5 µM); DPPH-reducing ability 20 min [21]: 6^b %; DPPH-reducing ability 60 min [21]: 5^b %; LOX inhibition, per cent ([22]; 100 μΜ (footnotes a, c)): 40.0 ± 1.0^a^,^c per cent |

| SMILES | MIC [1] | MIC [2] | MIC [3] | MIC [4] | MIC [5] | MIC [6] | MIC (Candida kefyr ATCC 2512) | MIC [7] | MIC [8] | MIC [9] | MIC [10] | MIC [11] | MIC [12] | MIC [13] | MIC [14] | MIC [15] | MIC [16] | MIC [17] | MIC [18] | MIC [19] | also measured |
| --- | --- | --- | --- | --- | --- | --- | --- | --- | --- | --- | --- | --- | --- | --- | --- | --- | --- | --- | --- | --- | --- |
| COc1cc(NC(C)CCCNC(=O)NC(C(=O)NC(c2ccccc2)c2ccc(Cl)cc2)c2ccc(Cl)cc2)c2ncccc2c1 (stereo not drawn) [Compound 5e, 2–(4-chlorophenyl)-N-[(4-chlorophenyl)(phenyl)methyl]-2-[({4-[(6-methoxyquinolin-8-yl)amino]pentyl}carbamoyl)amino]acetamide] | > 100 µg/mL | > 100 µg/mL | > 100 µg/mL | > 100 µg/mL | > 100 µg/mL | > 100 µg/mL | > 100 µg/mL | > 100 µg/mL | > 100 µg/mL | > 100 µg/mL | > 100 µg/mL | > 100 µg/mL | 45 µg/mL (≈ 67.1 µM) | 60 µg/mL (≈ 89.5 µM) | > 100 µg/mL | > 100 µg/mL | > 100 µg/mL | > 100 µg/mL | > 100 µg/mL | > 100 µg/mL | MIC [20]: > 100 µg/mL; DPPH-reducing ability 20 min [21]: 1^b %; DPPH-reducing ability 60 min [21]: 1^b %; IC50 [22]: 56 ± 2.3 µM |
